Laboratory results reported in US20230416258A1, “BENZ[…], AND PREPARATION METHOD THEREFOR AND USE THEREOF” (CHINA PHARMACEUTICAL UNIVERSITY, priority 2020, published 2023).
Where two headings read alike, the source gives them in different places.

Legend:
KM mice = test: Test for drug-induced disappearance of righting reflex in mice; format: in vivo; conditions: single rapid bolus via tail vein
In short: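 Latency to, and duration of, righting reflex loss were recorded after one fast tail-vein bolus. Animals: randomized female KM mice weighing 18–25 g.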

hCMEC/D3 cells = test: Rate of drug passing through in vitro blood-brain barrier (Transwell); format: in vitro ADME; conditions: hCMEC/D3 monolayer, compound 0.1 mg/mL
In short: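 Confluent hCMEC/D3 monolayers grown 10 days on Transwell inserts (5.0 μm pores). Compound at 0.1 mg/mL added to the lower chamber; upper-chamber concentration measured after 5 min, with permeability expressed as upper/lower concentration ×100%.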

SD rats [1] = test: Induction of anesthesia in rats by continuous infusion of drug for 20 min; format: in vivo; conditions: initial dose 20 mg/kg bolus, maintenance dose 0.2 (mg/kg)/min for 20 min, after infusion completed
Description: SD rats (male, 200-280 g) were randomly grouped and subjected to administration of an initial dose by rapid bolus via the tail vein, followed by a continuous infusion with a maintenance dose for 20 min.
After the infusion was completed, the duration of the righting reflex and the time from wake-up to recovery in rats were recorded.

SD rats [2] = test: Test for drug-induced disappearance of righting reflex in rats; format: in vivo; conditions: single rapid bolus via tail vein
In short: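 Male SD rats (200-280 g) were randomly grouped and given a single rapid bolus dose via the tail vein. Latency to loss of righting reflex and its duration were recorded.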

[3] = tested on: GABA-activated Cl− current (GABAA receptor) in HEK 293T cells; test: Effect of drugs on GABA-activated current in cells by cell patch clamp; format: cell-based; conditions: for Enhancement percentage Emax for 2 μM GABA current (within 3-30 μM): corresponding concentration 20 μM
In short: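 Whole-cell patch clamp of HEK 293T cells held at −60 mV; compound applied together with 2 μM GABA in extracellular buffer (140 mM NaCl, HEPES, pH 7.4). Enhancement of GABA-evoked Cl− current recorded in the same cell, reported as maximal enhancement (Emax) and corresponding concentration.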

[4] = In vitro plasma half-life of drug; format: in vitro ADME, SD rats; conditions: SD rat plasma, 37° C.; for half-life at 0.4 mg/mL: plasma (heparin sodium)
Description: Preparation of plasma: after the SD rats were fasted and kept with water for 12 h, blood was collected through orbital venous plexus. The freshly collected blood was added into a centrifuge tube containing heparin sodium and centrifuged at 5000 rpm for 10 min at 4° C. The supernatant was slowly pipetted and subpackaged. Finally, the collected SD rat plasma was sealed, marked, and stored at −20° C. for later use.
Preparation of target compound sample: the target compound was precisely weighed by an analytical balance and prepared into a stock solution at a concentration of 2 mg/mL (solvent: Vacetone:VTween 80:Vnormal saline=1:1:3) for later use.
Determination of in vitro half-life of target compound sample: 20 μL of test compound stock solution and 80 μL of rat plasma were mixed uniformly. Nine parallel ep tubes were taken, marked as corresponding test tubes of 0 min, 1 min, 2 min, 3 min, 5 min, 10 min, 15 min, 20 min, and 30 min, respectively, and placed in a water bath at 37° C. for incubation for 0 min, 1 min, 2 min, 3 min, 5 min, 10 min, 15 min, 20 min, and 30 min, respectively. 50 μL of mixed solution were taken from the corresponding ep tube at each time point, and […] of acetonitrile was added for precipitating protein. The mixture was vortexed for 10 min using a mixer and centrifuged at 12000 rpm for 15 min. Then, the supernatant was centrifuged at 12000 rpm for 10 min. The optimal detection method for the target compound in the MRM mode was determined using Intellistat software in UPLC-MS/MS, the peak area of the corresponding mass spectrum was integrated, and the plasma half-life of the compound was calculated.

[5] = target: voltage-gated potassium channel hERG (Homo sapiens (Human), UniProt Q12809); test: Predictor hERG fluorescence polarization assay; format: binding
Description: In this experiment, IC50 was calculated by detecting the effect of compounds at 8 concentrations on the […]. The procedures were performed exactly as for Predictor™ hERG fluorescence polarization assay kit. Before measuring fluorescence polarization, the assay plate was covered to protect the reagents from light and evaporation, and after incubation at room temperature for 2-4 h, the sample plate was centrifuged to read the fluorescence polarization value, with the excitation light at 540 nm and the emission light at 573 nm.

[6] = read-out: Positive enhancement EC50 (μM) for 2 μM GABA-induced current, −60 mV
[7] = 2 μM GABA, −60 mV, read-out: Positive enhancement EC50 (μM) for 2 μM GABA-induced current

Sequence of voltage-gated potassium channel hERG (Q12809 whole entry, looked up): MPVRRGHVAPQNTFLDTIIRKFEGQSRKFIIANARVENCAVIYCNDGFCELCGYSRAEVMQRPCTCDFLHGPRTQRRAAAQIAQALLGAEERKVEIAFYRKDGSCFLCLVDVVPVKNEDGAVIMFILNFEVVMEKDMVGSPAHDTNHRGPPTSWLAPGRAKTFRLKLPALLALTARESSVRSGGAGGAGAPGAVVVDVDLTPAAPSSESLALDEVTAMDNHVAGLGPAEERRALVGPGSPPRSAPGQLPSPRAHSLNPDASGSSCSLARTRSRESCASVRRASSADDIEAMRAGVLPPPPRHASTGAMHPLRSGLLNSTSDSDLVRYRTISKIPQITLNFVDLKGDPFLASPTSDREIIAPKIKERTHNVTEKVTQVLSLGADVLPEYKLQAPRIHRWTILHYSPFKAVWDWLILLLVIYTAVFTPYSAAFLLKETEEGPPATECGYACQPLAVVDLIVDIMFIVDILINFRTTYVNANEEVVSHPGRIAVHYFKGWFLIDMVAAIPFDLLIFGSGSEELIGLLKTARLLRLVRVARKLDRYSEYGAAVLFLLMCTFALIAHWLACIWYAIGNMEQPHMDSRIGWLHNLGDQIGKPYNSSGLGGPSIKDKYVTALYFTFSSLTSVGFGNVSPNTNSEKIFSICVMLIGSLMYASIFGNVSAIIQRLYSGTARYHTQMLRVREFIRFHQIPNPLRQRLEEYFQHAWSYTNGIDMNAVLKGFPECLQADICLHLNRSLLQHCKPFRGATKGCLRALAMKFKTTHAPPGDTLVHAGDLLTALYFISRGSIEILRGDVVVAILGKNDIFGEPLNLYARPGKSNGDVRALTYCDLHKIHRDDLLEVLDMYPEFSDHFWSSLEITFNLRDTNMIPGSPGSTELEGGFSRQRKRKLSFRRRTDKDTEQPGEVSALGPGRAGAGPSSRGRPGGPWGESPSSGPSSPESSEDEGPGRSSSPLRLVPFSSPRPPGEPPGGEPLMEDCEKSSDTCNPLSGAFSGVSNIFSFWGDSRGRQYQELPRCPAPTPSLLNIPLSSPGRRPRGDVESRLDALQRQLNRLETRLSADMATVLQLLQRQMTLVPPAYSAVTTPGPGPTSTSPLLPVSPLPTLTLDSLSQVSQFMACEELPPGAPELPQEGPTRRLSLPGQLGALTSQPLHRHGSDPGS

COC(=O)CC[C@@H]1N=C(c2ccccc2)c2cc(Cl)ccc2-n2c(SC)nnc21 [Compound 102, methyl (S)-3-(8-chloro-1-(methylthio)-6-phenyl-4H-benzo[f][1,2,4]triazolo[4,3-a][1,4]diazepin-4-yl)propionate]
Duration (KM mice; 30 mg/kg): 17.24 min | Latency (KM mice; 30 mg/kg): 1.13 min | Duration (KM mice; 60 mg/kg): 7.47 min | Latency (KM mice; 60 mg/kg): 0.39 min | In vitro blood-brain barrier, compound permeability at 5 min (hCMEC/D3 cells): 87.1% | Duration of anesthesia (SD rats [1]): 4.27 min | Time from wake-up to recovery (SD rats [1]): 25.5 min | Latency (SD rats [2]): 0.37 min | EC50 [3, 6]: 0.48 µM | Enhancement percentage Emax for 2 μM GABA current (within 3-30 μM) ([3]; −60 mV): 291% (20 μM) | half-life at 0.4 mg/mL [4]: 16.2 s

COC(=O)CC[C@@H]1N=C(c2ccccn2)c2cc(Br)ccc2-n2c(SCc3ccncc3)nnc21 [Compound 126, methyl (S)-3-(8-bromo-6-(pyridin-2-yl)-1-(((pyridin-4-yl)methyl)thio)-4H-benzo[f][1,2,4]triazolo[4,3-a][1,4]diazepin-4-yl)propionate]
Duration (KM mice; 30 mg/kg): 5.05 min | Latency (KM mice; 30 mg/kg): 0.16 min | In vitro blood-brain barrier, compound permeability at 5 min (hCMEC/D3 cells): 85.6% | Duration of anesthesia (SD rats [1]): 9.52 min | Time from wake-up to recovery (SD rats [1]): 20.5 min | Latency (SD rats [2]): 0.26 min | EC50 [3, 6]: 0.45 µM | Enhancement percentage Emax for 2 μM GABA current (within 3-30 μM) ([3]; −60 mV): 306% (20 μM) | half-life at 0.4 mg/mL [4]: 24.6 s | IC50 [5]: 72500 nM

COC(=O)CC[C@H]1N=C(c2ccccc2Cl)c2cc(Cl)ccc2-n2c(SCCN3CCC(O)CC3)nnc21 [Compound 135, methyl (S)-3-(8-chloro-6-(2-chlorophenyl)-1-(2-((4-hydroxypiperidin-1-yl)ethyl)thio)-4H-benzo[f][1,2,4]triazolo[4,3-a][1,4]diazepin-4-yl)propionate]
Duration (KM mice; 30 mg/kg): 10.64 min | Latency (KM mice; 30 mg/kg): 0.22 min | In vitro blood-brain barrier, compound permeability at 5 min (hCMEC/D3 cells): 80.2% | Duration of anesthesia (SD rats [1]): 7.24 min | Time from wake-up to recovery (SD rats [1]): 13.6 min | Duration (SD rats [2]): 16.64 min | Latency (SD rats [2]): 0.14 min | EC50 [3, 7]: 0.75 µM | Enhancement percentage Emax for 2 μM GABA current (within 3-30 μM) ([3]; −60 mV): 263% (20 μM) | In vitro plasma half-life [4]: 19.8 s | IC50 ([5]; hERG channel, fluorescence polarization, 8 concentrations, read-out: IC50): 31900 nM

Cc1ncc2n1-c1ccc(Cl)cc1C(c1ccccc1F)=NC2 [Midazolam, reference compound]
IC50 [5]: 7090 nM

COC(=O)CC[C@@H]1N=C(c2ccccc2F)c2cc(Cl)ccc2-n2c1n[nH]c2=S [Tautomer of compound 1, methyl (S)-3-(8-chloro-6-(2-fluorophenyl)-1-thio-2,4-dihydro-1H-benzo[f][1,2,4]triazolo[4,3-a][1,4]diazepin-4-yl)propionate]
Duration (KM mice; 30 mg/kg): 3.47 min | Latency (KM mice; 30 mg/kg): 0.21 min | In vitro blood-brain barrier, compound permeability at 5 min (hCMEC/D3 cells): 76.8% | Duration of anesthesia (SD rats [1]): 3.29 min | Time from wake-up to recovery (SD rats [1]): 9.6 min | Duration (SD rats [2]): 11.03 min | Latency (SD rats [2]): 0.68 min | EC50 [3, 7]: 0.72 µM | Enhancement percentage Emax for 2 μM GABA current (within 3-30 μM) ([3]; −60 mV): 234% (20 μM) | In vitro plasma half-life [4]: 279 s
